Test results from patent US20250302788A1, “COMPOSITION COMPRISING CREATINE FOR USE IN THE TREATMENT OF POST VIRAL FATIGUE SYNDROME” (Alzchem Trostberg GmbH, priority 2022, published 2025).
Read-outs that look alike come from different tables or passages of the source.

Tests used:
PCFS patients [1] = format: in vivo, human
[2] = both, human, in vivo
PCFS patients [3] = experiment: MFI-20 fatigue test, Example 3; format: in vivo, human
PCFS patients [4] = experiment: Incremental treadmill test until exhaustion, Example 3; format: in vivo, human; conditions: for Change of time to exhaustion: post-administration (8 weeks) vs baseline
Protocol: In addition the time to exhaustion of the patients was evaluated by an incremental test until exhaustion on a motorized treadmill.

[5] = system: patients suffering under Post-COVID; experiment: Incremental treadmill test until exhaustion, Example 1; format: in vivo, human; conditions: for Time to exhaustion: 4 g/day
Protocol: In addition the time to exhaustion of the patients was evaluated by an incremental test until exhaustion on a motorized treadmill. Speed and gradient of the treadmill are increased every third minute, starting at 2.7 km/h (1.7 miles per hour) at a 10% gradient and rising at stage 7 to 9.7 km/h (6 miles per hour) at 22% gradient (Will P. M. and Walter J. D., Am Heart. J., 1999 December, 138, 1033).

[6] = normal healthy population; cited from earlier work
[7] = system: patients suffering under Post-COVID; experiment: Reported side effects, Example 1; format: in vivo, human; conditions: 4 g creatine monohydrate/day, up to 6 months
Protocol: The number of participants who were randomly assigned, received intended treatment, and were analyzed for the primary outcome at this time was twelve in total, six in experimental group and six in control group.

[8] = system: patients suffering under Post-COVID; experiment: MFI-20 multidimensional fatigue inventory test, Example 1; format: in vivo, human; conditions: 4 g/day
Protocol: (§1) The patient-reported outcomes for COVID-19-related signs and symptoms (e.g. headache, concentrating difficulties, anosmia, ageusia) were evaluated with VAS scale. Fatigue, comprising the conditions of the group general fatigue, physical fatigue, metal fatigue, reduced activity, and reduced motivation, was evaluated with a multidimensional fatigue inventory test (MFI-20 test, Smets E. M. et al., J. Psychosom. Res. 1995, 39 (3), 315).

[9] = human, in vivo
[10] = system: patients suffering under Post-COVID; experiment: VAS scale of COVID-19-related signs and symptoms, Example 1; format: in vivo, human; conditions: 4 g/day
Protocol: as §1

PCFS patients [11] = conditions: in vivo
[12] = 8 weeks vs baseline, listed as EXP 2, monohydrate
[13] = 8 weeks vs baseline, monohydrate

## O=C[C@H](O)[C@@H](O)[C@H](O)[C@H](O)CO [Glucose, glucose, reference compound]
PCFS patients [1]; 8 weeks
  Ageusia (VAS scale): 0.6
  Anosmia (VAS scale): 1.0
  Concentrating difficulties (VAS scale): 3.0
  Headache (VAS scale): 2.8
  Malaise (VAS scale): 3.0
PCFS patients [1]; Baseline
  Ageusia (VAS scale): 2.2
  Anosmia (VAS scale): 2.6
  Concentrating difficulties (VAS scale): 4.4
  Headache (VAS scale): 3.8
  Malaise (VAS scale): 4.6
[2]
  Total creatine, Left frontal grey matter: 6.8 ± 0.4 mM
  Total creatine, Left frontal white matter: 5.8 ± 0.4 mM
  Total creatine, Left mesial grey matter: 7.6 ± 0.7 mM
  Total creatine, Left paracentral grey matter: 7.0 ± 0.9 mM
  Total creatine, Left parietal white matter: 5.4 ± 0.6 mM
  Total creatine, Left precentral white matter: 5.6 ± 0.6 mM
  Total creatine, Right frontal grey matter: 7.0 ± 0.9 mM
  Total creatine, Right frontal white matter: 5.6 ± 0.8 mM
  Total creatine, Right mesial grey matter: 7.3 ± 0.6 mM
  Total creatine, Right paracentral grey matter: 6.4 ± 0.7 mM
  Total creatine, Right parietal white matter: 5.2 ± 0.7 mM
  Total creatine, Right precentral white matter: 5.4 ± 0.6 mM
  Total creatine, Thalamus: 5.5 ± 0.5 mM
  Total creatine, Vastus medialis muscle: 30.1 ± 12.7 mM
[2]; 8 weeks
  Total creatine, Left frontal grey matter: 6.3 ± 0.9 mM
  Total creatine, Left frontal white matter: 5.6 ± 1.0 mM
  Total creatine, Left mesial grey matter: 7.4 ± 0.6 mM
  Total creatine, Left paracentral grey matter: 6.9 ± 0.7 mM
  Total creatine, Left parietal white matter: 5.3 ± 0.5 mM
  Total creatine, Left precentral white matter: 5.6 ± 0.5 mM
  Total creatine, Right frontal grey matter: 7.0 ± 0.7 mM
  Total creatine, Right frontal white matter: 5.6 ± 0.8 mM
  Total creatine, Right mesial grey matter: 7.0 ± 1.0 mM
  Total creatine, Right paracentral grey matter: 6.2 ± 1.1 mM
  Total creatine, Right parietal white matter: 5.2 ± 0.7 mM
  Total creatine, Right precentral white matter: 5.3 ± 0.7 mM
  Total creatine, Thalamus: 5.5 ± 0.7 mM
  Total creatine, Vastus medialis muscle: 28.5 ± 9.2 mM
PCFS patients [3]; 8 weeks
  General fatigue (MFI-20 score): 11.6
  Mental fatigue (MFI-20 score): 11.0
  Physical fatigue (MFI-20 score): 12.6
  Reduced activity (MFI-20 score): 12.6
  Reduced motivation (MFI-20 score): 10.8
PCFS patients [3]; Baseline
  General fatigue (MFI-20 score): 12.0
  Mental fatigue (MFI-20 score): 11.4
  Physical fatigue (MFI-20 score): 12.8
  Reduced activity (MFI-20 score): 12.6
  Reduced motivation (MFI-20 score): 10.0
PCFS patients [4]; 8 weeks
  Time to exhaustion: 908 s
PCFS patients [4]; Baseline
  Time to exhaustion: 915 s
PCFS patients [4]
  Change of time to exhaustion: -7 s

## CN(CC(=O)O)C(=N)N.O [Creatine, creatine monohydrate]
PCFS patients [1]; 8 weeks
  Ageusia (VAS scale): 0.2
  Anosmia (VAS scale): 0.0
  Concentrating difficulties (VAS scale): 2.2
  Headache (VAS scale): 0.8
  Malaise (VAS scale): 1.0
PCFS patients [1]; 8 weeks vs baseline
  Cohen's effect (d), Ageusia (AGE): 0.34
  Cohen's effect (d), Breathing Difficulties (BRD): 0.96
  Cohen's effect (d), Headache (HAD): 0.93
PCFS patients [1]; [12]
  Cohen's effect (d), Difficulties concentrating (DCN): 1.37
  Cohen's effect (d), Malaise (MAL): 1.81
PCFS patients [1]; [13]
  Cohen's effect (d), Difficulties concentrating (DCN): > 0.80
  Cohen's effect (d), Malaise (MAL): > 0.80
PCFS patients [1]; Baseline
  Ageusia (VAS scale): 0.0
  Anosmia (VAS scale): 0.0
  Concentrating difficulties (VAS scale): 4.2
  Headache (VAS scale): 3.2
  Malaise (VAS scale): 4.2
[2]
  Total creatine, Left frontal grey matter: 6.6 ± 0.6 mM
  Total creatine, Left frontal white matter: 6.7 ± 0.7 mM
  Total creatine, Left mesial grey matter: 8.1 ± 1.3 mM
  Total creatine, Left paracentral grey matter: 6.8 ± 0.8 mM
  Total creatine, Left parietal white matter: 7.5 ± 1.6 mM
  Total creatine, Left precentral white matter: 6.4 ± 1.0 mM
  Total creatine, Right frontal grey matter: 6.6 ± 1.1 mM
  Total creatine, Right frontal white matter: 6.7 ± 1.0 mM
  Total creatine, Right mesial grey matter: 8.4 ± 1.4 mM
  Total creatine, Right paracentral grey matter: 7.2 ± 0.8 mM
  Total creatine, Right parietal white matter: 7.6 ± 1.9 mM
  Total creatine, Right precentral white matter: 6.8 ± 0.9 mM
  Total creatine, Thalamus: 5.1 ± 1.0 mM
  Total creatine, Vastus medialis muscle: 29.0 ± 5.6 mM
[2]; 8 weeks
  Cohen's effect size (d) for creatine increase, parietal mesial grey matter: 0.65
  Total creatine, Left frontal grey matter: 6.5 ± 0.5 mM
  Total creatine, Left frontal white matter: 6.8 ± 0.9 mM
  Total creatine, Left mesial grey matter: 8.6 ± 1.1 mM
  Total creatine, Left paracentral grey matter: 6.9 ± 0.9 mM
  Total creatine, Left parietal white matter: 7.8 ± 1.3 mM
  Total creatine, Left precentral white matter: 6.7 ± 0.8 mM
  Total creatine, Right frontal grey matter: 6.7 ± 1.0 mM
  Total creatine, Right frontal white matter: 7.0 ± 1.1 mM
  Total creatine, Right mesial grey matter: 9.2 ± 1.0 mM
  Total creatine, Right paracentral grey matter: 7.6 ± 1.6 mM
  Total creatine, Right parietal white matter: 7.7 ± 1.9 mM
  Total creatine, Right precentral white matter: 7.4 ± 1.1 mM
  Total creatine, Thalamus: 5.3 ± 0.9 mM
  Total creatine, Vastus medialis muscle: 30.4 ± 5.2 mM
PCFS patients [3]; 8 weeks
  General fatigue (MFI-20 score): 12.0
  Mental fatigue (MFI-20 score): 12.2
  Physical fatigue (MFI-20 score): 11.4
  Reduced activity (MFI-20 score): 12.0
  Reduced motivation (MFI-20 score): 10.3
PCFS patients [3]; 8 weeks vs baseline
  Cohen's effect (d), General Fatigue: 0.44
  Cohen's effect (d), Mental Fatigue (MF): 1.32
  Cohen's effect (d), Physical Fatigue (PF): 0.83
  Cohen's effect (d), Reduced Motivation (RM): 1.07
  Cohen's effect (d), Reduced activity (RA): 1.52
PCFS patients [3]; Baseline
  General fatigue (MFI-20 score): 12.6
  Mental fatigue (MFI-20 score): 13.4
  Physical fatigue (MFI-20 score): 12.2
  Reduced activity (MFI-20 score): 13.6
  Reduced motivation (MFI-20 score): 11.6
[5]; 3-months
  Time to exhaustion: 922 s
[5]; 6-months
  Time to exhaustion: 959 s
[5]; Baseline
  Time to exhaustion: 894 s
[5]; placebo group remains at stage 5
  Stage achieved in the treadmill test: stage 6
[5]; vs baseline, compared to 2.1% after placebo intake
  Increase of time to exhaustion: 7.3%
[6]
  Increase of creatine in the brain after creatine supplementation: ≤ 5%
[7]
  Side effects: no major side effects
[8]; 3 months
  General fatigue (MFI-20 score): 11.3
  Mental fatigue (MFI-20 score): 11.2
  Physical fatigue (MFI-20 score): 12.7
  Reduced activity (MFI-20 score): 12.0
  Reduced motivation (MFI-20 score): 13.0
[8]; 6 months
  General fatigue (MFI-20 score): 12.7
  Mental fatigue (MFI-20 score): 10.5
  Physical fatigue (MFI-20 score): 13.2
  Reduced activity (MFI-20 score): 12.5
  Reduced motivation (MFI-20 score): 12.5
[8]; Baseline
  General fatigue (MFI-20 score): 12.0
  Mental fatigue (MFI-20 score): 12.3
  Physical fatigue (MFI-20 score): 13.5
  Reduced activity (MFI-20 score): 11.5
  Reduced motivation (MFI-20 score): 13.0
[9]; 0 months
  Total creatine, Vastus medialis muscle: 28.2 ± 3.0 mM
[9]; 3 months
  Cohen's effect size (d), brain creatine level, left parietal white matter: 0.92
  Cohen's effect size (d), brain creatine level, parietal white matter: 1.99
  Cohen's effect size (d), brain creatine level, right frontal white matter: 1.25
  Cohen's effect size (d), brain creatine level, right paracentral grey matter: 0.88
  Cohen's effect size (d), brain creatine level, right parietal messial grey matter: 1.17
  Cohen's effect size (d), brain creatine level, thalamus: 0.82
  Total creatine, Vastus medialis muscle: 30.0 ± 4.2 mM
[9]; 6 months
  Cohen's effect size (d), brain creatine level, left parietal messial grey matter: 0.84
  Cohen's effect size (d), brain creatine level, left parietal white matter: 1.17
  Cohen's effect size (d), brain creatine level, parietal white matter: 1.74
  Cohen's effect size (d), brain creatine level, right frontal white matter: 1.32
  Cohen's effect size (d), brain creatine level, right parietal messial grey matter: 1.06
  Total creatine, Vastus medialis muscle: 30.6 ± 3.4 mM
PCFS patients [4]; 8 weeks
  Time to exhaustion: 844 s
PCFS patients [4]; Baseline
  Time to exhaustion: 824 s
PCFS patients [4]
  Change of time to exhaustion: 20 s
[10]; 3 months
  Ageusia (VAS scale): 0.2
  Anosmia (VAS scale): 1.0
  Concentrating difficulties (VAS scale): 1.5
  Headache (VAS scale): 0.8
[10]; 6 months
  Ageusia (VAS scale): 0.0
  Anosmia (VAS scale): 0.8
  Concentrating difficulties (VAS scale): 0.0
  Headache (VAS scale): 0.5
[10]; Baseline
  Ageusia (VAS scale): 5.0
  Anosmia (VAS scale): 5.0
  Concentrating difficulties (VAS scale): 4.0
  Headache (VAS scale): 3.8
PCFS patients [11]
  Side effects / tolerability: well-tolerated
